According to patent US11311524B2, “Pharmaceutical composition used for treatment of HTLV-1-associated myelopathy” (DAIICHI SANKYO COMPANY, LIMITED, priority 2017, dated 2022):

Experiments:
HAM patient-derived PBMC = test: Autoproliferation (3H-thymidine incorporation) of HAM patient-derived PBMC without stimulation; type: cell-based, human; conditions: for GI50: Homo sapiens, PBMC of 8 HAM patients, 6 days culture, 3H-thymidine, read-out: GI50, autoproliferation activity of HAM patient-derived PBMC; for Suppression of autoproliferation activity of HAM patient-derived PBMC: no stimulation, relative to DMSO group
Method: PBMC taken from 8 HAM patients were suspended in culture mediums (RPMI1640 culture medium (wako) containing 10% FBS (GIBCO)), seeded in a 96-well round-bottom plate in a ratio of 1×10^5 cells per well (3 wells were used for each concentration), and compound A or compound B was added so as to provide a final concentration of 1, 10, 100 or 1000 nM. Culture was carried out at 37° C. in 5% CO2 conditions for 6 days. The DMSO treatment group and the PSL (1 μg/mL) treatment group were used as controls. Day 6 after initiation of culture, 1 μCi ^3H-thymidine was added to each well and culture was carried out at 37° C., in 5% CO2 conditions for 16 hours. Thereafter, the cultured cells were allowed to adsorb to a glass filter (Printed Filtermat A, PerkinElmer) by a cell harvester (Tomtec MH3, PerkinElmer), dried and impregnated with solid scintillator Meltilex-A (PerkinElmer). The amount of the ^3H-thymidine incorporated in the cells was measured by use of MicroBeta (WALLAC MicroBeta TriLux 1450-021) (Yamano et al., PLoS One. 2009, 4(8): e6517). Based on the average count of ^3H-thymidine in the DMSO treatment group of HAM patients' PBMC as 100%, the relative values of the groups treated with compound A, compound B and PSL (1 μg/mL) were obtained by calculation, and then, an average value of 8 HAM patient cases was obtained. A significance test was carried out in accordance with the Friedman test of GraphPad Prism6 (MDF).
The number of patients was increased to 16 and the same experiment as above was carried out.
Effect on HAM patient-derived PBMC was checked in the same manner as in the above Example except that an EZH2 inhibitor was used in place of compounds A and B.
As the EZH2 inhibitor, GSK126 (CAS No.: 1346574-57-9) and E7438 (CAS No.: 1403254-99-8) were used. The concentration for treatment was 1, 10, 100, 1000 or 10000 nM in terms of final concentration. In the experiment, PBMC samples taken from the 8 persons before the number of cases increased in the above were used.

[1] = tested on: HTLV-1 infected cells in HAM patient's PBMC; test: HTLV-1 pro-viral load (infected cell rate) in HAM patient-derived PBMC by real time PCR; type: cell-based, human; conditions: PSL 1 μg/ml control, this experimental system or clinical sites
Method: PBMC taken from 8 HAM patients were suspended in a culture medium (RPMI1640 culture medium containing 10% FBS) and seeded in a 48-well plate in a ratio of 5×10^5 cells per well, and compound A or compound B was added so as to provide a final concentration of 1, 10, 100 or 1000 nM. The culture solution of 0.5 mL in total was cultured at 37° C. in 5% CO2 conditions for 12 days. A group treated with DMSO and a group treated with PSL (1 μg/mL) were used as controls. Day 12 after initiation of culture, the culture solution was centrifuged, and thereafter, the cell suspension was recovered from each of the cultures carried out under different conditions and centrifuged. After the supernatant was removed, the cell pellet was subjected to genomic DNA extraction. The genome DNA extracted was subjected to real time PCR to measure HTLV-1 pro-viral load (infected cell rate) (Yamano et al., Blood. 2002, 99 (1): 88-94). Based on the HTLV-1 pro-viral load in cells, which were obtained by adding DMSO to each of the HAM patient's PBMC and culturing the PBMC, as 100%, the relative value of HTLV-1 pro-viral load in a group treated with compound A, compound B or PSL was calculated, and then, an average value of 8 HAM patient cases was obtained. The significance test was carried out by using the Friedman test of GraphPad Prism6 (MDF).

| SMILES | GI50 (HAM patient-derived PBMC) [nM] | Suppression of autoproliferation activity of HAM patient-derived PBMC (HAM patient-derived PBMC) | Infected cell removal activity [1] |
| --- | --- | --- | --- |
| CCN(c1cc(-c2ccc(CN3CCOCC3)cc2)cc(C(=O)NCc2c(C)cc(C)[nH]c2=O)c1C)C1CCOCC1 [E7438, N-((4,6-Dimethyl-2-oxo-1,2-dihydropyridin-3-yl)methyl)-5-(ethyl(tetrahydro-2H-piran-4-yl)amino)-4-methyl-4′-(morpholinomethyl)-[1,1′-biphenyl]-3-carboxamide, reference compound] | 214 | suppress autoproliferation activity | – |
| CC[C@H](C)n1cc(C)c2c(C(=O)NCc3c(C)cc(C)[nH]c3=O)cc(-c3ccc(N4CCNCC4)nc3)cc21 [GSK126, N-[(1,2-Dihydro-4,6-dimethyl-2-oxo-3-pyridinyl)methyl]-3-methyl-1-[(1S)-1-methylpropyl]-6-[6-(1-piperazinyl)-3-pyridinyl]-1H-indole-4-carboxamide, reference compound] | 724 | suppress autoproliferation activity | – |
| C[C@]12C=CC(=O)C=C1CC[C@@H]1[C@@H]2[C@@H](O)C[C@@]2(C)[C@H]1CC[C@]2(O)C(=O)CO [PSL, prednisolone, reference compound] | – | can suppress autoproliferation activity | does not exhibit infected cell removal activity |
